The values that follow come from PubChem BioAssay (NCI).

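48-hour exposure; five concentrations; linearly interpolated endpoints. Abbreviation: GI50, concentration required for 50% inhibition of growth. TGI: concentration producing complete growth inhibition.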

Common to all, as to assay: DTP human tumour cell line panel, 48 h
Assay [1] relates to SF-295 CNS.
Assay [2] concerns SR leukemia.
The subject of assay [3] is COLO 205 colon.
Assay [4] has as its system U251 CNS.
The subject of assay [5] is OVCAR-4 ovarian.
The test system of assay [6] is SF-268 CNS.
In assay [7] the test system is HT29 colon.
Assay [8] deals with A498 renal.
Assay [9] deals with K-562 leukemia.
Assay [10] has as its system NCI-H522 lung.

For the compound `NC(=NCc1ccccc1)N/N=C\c1ccnc2ccccc12`, the TGI in assay [1] turned out to be 32.2 µM; in [2], 4.98 µM; in assay [3], 3.21 µM; in [4], 36.6 µM; in assay [5] it was 33 µM; in assay [6], 28.6 µM. Moreover, the TGI in assay [7] turned out to be 25.4 µM; in assay [8], 25.2 µM; in assay [9] it was 24.2 µM.

For `CC/C(=C(/CC)c1ccc(OP(=O)([O-])[O-])cc1)c1ccc(OP(=O)([O-])[O-])cc1.N.N.N.N.[Pt+4].[Pt+4]`, the GI50 in assay [1] was 1.91 µM; in assay [2], 1.28 µM; in assay [4], 0.594 µM; in assay [5], 1.95 µM; in assay [6] it was 1.73 µM; in assay [7] it was 16.9 µM. In addition, the GI50 was 27.5 µM in assay [8] and 4.63 µM in assay [9]. The TGI in assay [1] was 12.2 µM; in [2], greater than 100 µM; in assay [4] it was 2.12 µM; in [5], 7.54 µM; in [6], 16.6 µM; in assay [7], 90.3 µM. Further, the values for the TGI in assay [8] and in [9] were 61.1 µM and greater than 100 µM, respectively.

`Nc1cc2c3c(cccc3c1)C(=O)N(CCN1CCN(CCN3C(=O)c4cccc5cc(N)cc(c45)C3=O)CC1)C2=O`: the TGI in assay [1], in [10], in assay [3], in assay [4], in assay [5] and in [6] was greater than 100 µM each time. Also, the TGI in [7], in assay [8] and in assay [9] was greater than 100 µM each time.

Turning to `COC(=O)C12C3C=CC(O3)C1C1C=CC2O1` (stereo not drawn), the TGI in assay [1], in assay [10], in assay [2], in assay [3], in assay [4] and in assay [6] was greater than 100 µM in each case. Further, the TGI in assay [7] and in [9] was greater than 100 µM throughout.

For the compound `CN(C)c1ccc(N=C(C#N)c2nc(N)nc(N3CCOCC3)n2)cc1`, the GI50 in [1] is 15.9 µM; in assay [10] it was 26.5 µM; in assay [2], 34.9 µM; in assay [3], greater than 100 µM; in assay [4] it was 32.9 µM; in assay [5] it was 46.6 µM. Moreover, the figures for the GI50 in [7] and in assay [9] were 67.5 µM and 62.1 µM, respectively. In addition, the TGI was 31.3 µM in assay [1]; greater than 100 µM in assay [10]; greater than 100 µM in [2]; greater than 100 µM in assay [3]; greater than 100 µM in assay [4]; greater than 100 µM in [5]. Besides, the TGI in assay [7] and in assay [9] was greater than 100 µM each time.

Take `CC1(C)CC[C@]2(C(=O)O)CCC3(C)C(=CCC4[C@@]5(C)CC[C@H](OC6OCC(O)C(O)C6OC6OC(CO)C(O)C(O)C6O)C(C)(C)C5CC[C@]43C)C2C1` (stereo partly drawn): the TGI is 3.42 µM in assay [1]; 5.87 µM in assay [2]; 3.49 µM in [3]; 3.4 µM in [4]; 3.05 µM in [5]; 4.61 µM in assay [6]. Also, the TGI stood at 5.23 µM in assay [7] and 4.09 µM in [8].

Regarding `O=S(=O)(Nc1ccc2ccc3cccc4ccc1c2c34)c1ccccc1`, the TGI in [1], in [10], in assay [2], in [3], in [4] and in assay [5] was greater than 100 µM each time. Besides, the TGI in [6], in assay [7] and in [9] was greater than 100 µM each time.

With `Oc1ccc(-c2nc(-c3ccc(F)cc3)c(-c3ccncc3)[nH]2)cc1`, the GI50 in assay [1] is 20.2 µM; in assay [2], 6.98 µM; in [3] it was 4.77 µM; in [4] it was 25.5 µM; in [5], 16.5 µM; in assay [6] it was 19.3 µM. In addition, the results for the GI50 in assay [7], in assay [8] and in assay [9] were 3.78 µM, 16.7 µM and 15.9 µM, respectively. The TGI is greater than 100 µM in assay [1]; 52.8 µM in [2]; 40.5 µM in [3]; greater than 100 µM in assay [4]; greater than 100 µM in [5]; greater than 100 µM in assay [6]. Besides, the TGI in assay [7] was greater than 100 µM; in assay [8], 48.5 µM; in assay [9], greater than 100 µM.

Take `CC1=C(C(=O)Nc2cc(F)c(F)cc2F)C(c2cccc([N+](=O)[O-])c2)C(C(=O)Nc2ccccc2C(F)(F)F)=C(C)N1` (stereo not drawn): the TGI is 48.8 µM in [1]; 34.7 µM in assay [10]; greater than 100 µM in assay [3]; 53.1 µM in [4]; 66.1 µM in assay [5]; 54.6 µM in assay [6]. Besides, the TGI came to 62.8 µM in [7], 45 µM in assay [8] and 36.7 µM in assay [9].

Turning to `Cn1cc(-c2nonc2-c2cn(C)c3ccc(Br)cc23)c2ccccc21`, the GI50 in [1] is 2.89 µM; in assay [10], 3.01 µM; in assay [4], 3.93 µM; in assay [5] it was 5.95 µM; in assay [6], 5.79 µM; in [7], 3.26 µM. Moreover, the figures for the GI50 in assay [8] and in assay [9] were 3.38 µM and 1.08 µM, respectively. For the same compound, the TGI in [1], in [10], in [4], in [5], in assay [6] and in assay [7] was greater than 100 µM throughout. For the same compound, the TGI in assay [8] and in assay [9] was greater than 100 µM each time.

`O=C1c2cccnc2-c2nc(-c3ccccc3)cc3c2c1nc1ccccc13`: the GI50 in assay [1] is 11.4 µM; in assay [10], 0.714 µM; in [3], 6 µM; in assay [4], 4.09 µM; in assay [5], 4.33 µM; in [6] it was 3.93 µM. Moreover, the figures for the GI50 in [7], in [8] and in [9] were 2.59 µM, 17.1 µM and 0.658 µM, respectively. In addition, the TGI in assay [1] turned out to be 25.3 µM; in assay [10], 3.06 µM; in assay [3] it was 19 µM; in assay [4], 19.6 µM; in assay [5] it was 10.1 µM; in [6], 18.8 µM. Further, the TGI amounted to 7.16 µM in [7], 31.2 µM in [8] and 3.91 µM in assay [9].

For the compound `CCOc1ccc(NC(=O)/C(=C/c2ccccc2)C(C)=O)cc1`, the TGI in [1] came out at 29.4 µM; in assay [10], 7.66 µM; in [3] it was 33.1 µM; in assay [4], 28.5 µM; in [5], 27.5 µM; in assay [6], 30.7 µM. The TGI in assay [7] was determined as 33.3 µM; in assay [8] it was 35.3 µM; in [9] it was 41.4 µM.

With `COc1ccc(C=O)c(N(C)C(=O)C(C)(C)C)c1`, the TGI in assay [1], in [10], in assay [3], in assay [4], in assay [5] and in assay [6] was greater than 100 µM throughout. The TGI in assay [7], in assay [8] and in assay [9] was greater than 100 µM in each case.

Turning to `CC(=O)[CH-]C(=O)c1ccccc1.CC(=O)[CH-]C(=O)c1ccccc1.[O-]Cc1cccs1.[O-]Cc1cccs1.[Ti+4]`, the GI50 was 10.6 µM in [1]; 54.2 µM in [10]; greater than 100 µM in assay [4]; greater than 100 µM in assay [5]; greater than 100 µM in assay [6]; 17.5 µM in [7]. Also, the values for the GI50 in [8] and in assay [9] were greater than 100 µM and 31.2 µM, respectively. The TGI in assay [1] is 71.9 µM; in [10] it was greater than 100 µM; in [4], greater than 100 µM; in assay [5] it was greater than 100 µM; in assay [6], greater than 100 µM; in assay [7], 46.6 µM. The TGI in assay [8] and in [9] was greater than 100 µM each time.

Turning to `Fc1cccc(C=NC23CC4CC(CC(C4)C2)C3)c1`, the TGI in assay [1], in [10], in [3], in assay [4], in assay [5] and in assay [6] was greater than 100 µM in each case. The total growth inhibition concentration (TGI) in assay [7], in [8] and in assay [9] was greater than 100 µM each time.

As to `CCOC(=O)C1=C(O)CSC1=Nc1ccc(N=C2SCC(O)=C2C(=O)OCC)cc1`, the TGI in assay [1] is 63.1 µM; in [10], 32.3 µM; in assay [3] it was 32.5 µM; in [4], 63 µM; in assay [5], 94.8 µM; in [6], 52.4 µM. Besides, the TGI in assay [7] is 60.2 µM; in assay [8], 50.5 µM; in assay [9] it was greater than 100 µM.

With `C/C=C(\C)C(=O)O[C@@H]1C=CC(=O)O[C@H]1COC(=O)[C@H](C)O`, the GI50 in [1] was 27.4 µM; in assay [10], 4.96 µM; in assay [3], 6.57 µM; in [4], 11.5 µM; in assay [5] it was 11.5 µM; in [6], 3.72 µM. For the same compound, the GI50 in [7] was 5.93 µM; in assay [8], 15.2 µM; in assay [9] it was 5.21 µM. For the same compound, the TGI in [1] came to 62.1 µM; in assay [10], 20.7 µM; in assay [3], 23.7 µM; in assay [4] it was 25 µM; in [5] it was 31 µM; in [6], 19.5 µM. The TGI in [7] is 20.9 µM; in assay [8], 30.4 µM; in assay [9], greater than 100 µM.

On to `Nc1ncn([C@@H]2C=C(CO)C(O)C2O)c(=O)n1` (stereo partly drawn), for which the TGI in assay [1], in [10], in [3], in assay [4], in [5] and in assay [6] was greater than 100 µM in each case. The TGI in assay [7], in [8] and in assay [9] was greater than 100 µM in each case.

In the case of `Cc1ccc(C)c(NC(=O)CCC(=O)CC(=O)C(C)(C)C)c1`, the TGI in assay [10], in assay [3], in [4], in assay [5], in assay [6] and in assay [7] was greater than 100 µM throughout. The TGI in [8] and in [9] was greater than 100 µM each time.

On to `COC(=O)C1(c2ccc(OC)cc2)NC(c2ccccc2)C2C(=O)N(c3ccc(OC)cc3)C(=O)C21` (stereo not drawn), for which the TGI in assay [1], in [10], in [3], in [4], in assay [5] and in [6] was greater than 100 µM throughout. In addition, the TGI in [7], in [8] and in assay [9] was greater than 100 µM throughout.

Consider `COC1C2c3ccccc3C(C#N)(Cc3ccc4c(c32)OCO4)N1C(=O)c1ccccc1` (stereo not drawn), for which the TGI in assay [1] is greater than 100 µM; in assay [10], greater than 100 µM; in [2], greater than 100 µM; in [3], 82.6 µM; in [4], greater than 100 µM; in [6], greater than 100 µM. In addition, the TGI in assay [7] and in assay [9] was greater than 100 µM throughout.

In the case of `C[C@@H](Oc1cc(-n2cnc3ccc(OCC4CCN(C)CC4)cc32)sc1C(N)=O)c1ccccc1C(F)(F)F`, the GI50 was 0.138 µM in assay [1]; 0.0472 µM in [10]; 0.0752 µM in assay [3]; 0.11 µM in assay [4]; 0.699 µM in assay [5]; 0.14 µM in [6]. For the same compound, the GI50 in assay [7] is 0.0721 µM; in assay [8], 0.295 µM; in assay [9], 0.0832 µM. The TGI came to 3.39 µM in assay [1]; 0.236 µM in assay [10]; 0.401 µM in assay [3]; 3.4 µM in [4]; 4.69 µM in assay [5]; 3.86 µM in [6]. Also, the TGI in [7] turned out to be 2.63 µM; in [8], 1.56 µM; in [9] it was 3.31 µM.

For `Cc1cc2c(C)nn(Cc3ccc(Cl)cc3Cl)c2c(C#N)c1C`, the TGI in [1], in assay [2], in assay [4], in assay [6] and in assay [7] was greater than 100 µM throughout.
